Data on two compounds can be found in PMC11718441, “Bis-3-chloropiperidines: a novel motif for anthelmintic drug design” (RSC Advances, 2025).

The test system of data set [1] is C. elegans strains N2 and DC19. Kind of data set: MMIC against C. elegans, strains N2 and DC19 reported together or strain not stated. In kind it is cell-based. The settings on record: Caenorhabditis elegans, 48 h. The text has this:
The cuticle of C. elegans strain DC19 is known to be more permeable for small molecules compared to the wildtype N2.[30] DC19 is thereby considered an informative drug-sensitive test organism. In our assays, we determined the minimum mobility inhibitory concentration (MMIC) as a proxy for anthelmintic activity. […] In contrast, MMICs of some small molecule anthelmintics such as albendazole, mebendazole or PF-1022A were lower for DC19 (Fig. S1 ^†). […]
2.2 In vitro tests against Caenorhabditis Elegans
The minimal motility inhibitory concentration (MMIC) of compounds 1-22 against C. elegans was determined as described before.3 Both strains, C. elegans N2 and DC19 were treated identically. Briefly, pre-cultures of C.elegans were kept on NGM agar plates infused with auxotrophic E.coli OP50 as food source.4 After 4 days the plates contained sufficient gravid worms, respectively. Worms were washed from the plates with M9 buffer using wide bore pipette tips. Egg preparation was carried out by treating the harvested worms with an alkaline hypochlorite solution (5 M NaOH + 5 % NaOCl 1:2) in polypropylene tubes. Larvae and adult […]
We carried out 3 washing steps (M9 buffer) to remove carry-over hypochlorite solution. Subsequently, the eggs were incubated overnight in NGM broth on a rotator to yield synchronized hatched L1/L2 larvae. The larvae solution was adjusted to 100 worms/mL and supplemented with cholesterol (5 µg/mL), carbenicillin (25 µg/mL) and E.coli OP50 (0.5%). This assay solution was distributed into 96 well plates and incubated with a dilution series of compounds 1-22 (64-0.5 µg/mL). An additional eight-point dilution series of ivermecin (40 – 0.3 ng/mL) was used as positive control on each assay plate. Solvent background was controlled by supplementation of pure DMSO without any compound. Assays were incubated for 2 days at room temperature. Finally, a cell imaging multimode reader (Cytation™ 5) was used to record short videos (1.5 seconds) of each individual test well. The videos were used to evaluate the worm motility.

Data set [2] concerns Septoria tritici MUCL45408. Nature of the data set: Minimum inhibitory concentration (MIC), S. tritici (ATP quantification). The format is cell-based. The settings on record: Zymoseptoria tritici, MUCL45408, 96 h, read-out: MIC St.
Data set [3] has as its system MDCK II cells. Nature of the data set: In vitro cytotoxicity, CellTiter-Glo, MDCK II cells. The conditions noted are these: 100 μM; for MDCKII cytotoxicity: 48 h, cell viability less than 80% relative to DMSO control = cytotoxic. A general note: In ATP-based viability assays light output follows the ATP content of the culture.
Data set [4] has as its system Escherichia coli ATCC35218. Nature of the data set: microbe, parasite or virus in culture. The settings on record: ATCC35218, read-out: MIC Ec. The format is cell-based.
Data set [5] relates to S. aureus ATCC33592. Nature of the data set: microbe, parasite or virus in culture. In kind it is cell-based. The settings on record: Staphylococcus aureus, ATCC33592, read-out: MIC Sa.
Data set [6] can be described thus: in vitro. The conditions noted are these: dog.
For data set [7], the system named is Schistosoma mansoni. Nature of the data set: In vitro tests against Schistosoma mansoni (vitality parameters of adult worm pairs). In kind it is cell-based. The conditions noted are these: for activity against S. mansoni (100% effect strength in one parameter within 7 days = active): 10 or 20 μM. As for the experimental part:
Subsequently, we tested whether compounds with nematocidal activity display a broader activity also against parasitic flatworms. To this end, in vitro tests against the blood fluke S. mansoni were conducted (Fig. 4). The worms were incubated in presence of 10 and 20 μM of compounds 1–22 and phenotypic vitality parameters (separation of worm pairs, detachment of suckers from the bottom of the well and weakening of body movements) were assessed as previously described.[31] Compounds reaching 100% effect strength in one of the parameters within 7 days were considered active. Reduction of motility is considered most relevant for antischistosomal drug candidates.[32] In addition, loss of sucker activity would make parasites drifting off from their host habitat (mesenteric veins) and with pair separation, the production of pathology-causing eggs eventually ceases.[33] […] For some molecular targets e.g. glutamate and GABA chloride channels (ivermecin, abamectin) and β-tubulin (albendazole, mebendazole) the C. elegans assays results were transferable to Schistosoma, while for others e.g. acetylcholin mimetic (levamisole) the C. elegans MMIC was not predicative (Fig. S1 ^†).
2.2 Parasitological studies
Animal experiments were performed in accordance with Directive 2010/63/EU on the protection of animals used for scientific purposes and the German Animal Welfare Act. The experiments were approved by the Regional Council (Regierungspraesidium) Giessen (V54 – […]
A Liberian strain of S. mansoni was maintained in the freshwater snail Biomphalaria glabrata as intermediate host and Syrian hamsters (Mesocricetus auratus) as final host (Janvier Labs, France).5,6 Hamsters were infected at 8 weeks of age with 1,750 cercariae by using the paddling method.7 Adult worms were collected at 46 days p.i. by hepatoportal perfusion and cultured in M199 medium (Sigma-Aldrich, Germany) supplemented with 10% Newborn Calf Serum (NCS, Sigma-Aldrich), 1% 1 M HEPES (ThermoFisher Scientific, USA) and 1% ABAM solution (10,000 units/ml penicillin, 10 mg/ml streptomycin and […] amphotericin B; Sigma-Aldrich, Germany) at 37 °C, 5% CO2 and humidified atmosphere.
2.2.3. In vitro tests against Schistosoma mansoni
Test compounds were added at 10 µM or 20 µM in supplemented M199 medium to schistosomes (5 worm pairs per replicate) followed by a 7 d in vitro culture. Worms receiving the solvent DMSO at equal dilution served as negative control. The following vitality parameters were assessed every 24 h by bright field microscopy using a Leica DM IL inverted microscope and x2.5 objective lens: separation of worm pairs into male and female worms; detachment of suckers from the bottom; and weakening of body movements. Worm motility was scored as described previously, 8 with the scores 3 (normal motility), 2 (reduced motility), 1 (minimal and sporadic movements), 0 (no movements within 20 sec; dead worms). An average score of all worms per well was calculated to obtain a motility score. An average motility score of 0, separation of all pairs or detachment of all worms per well was considered

The test system of data set [8] is C. elegans N2. Nature of the data set: whole plant or invertebrate. In kind it is cell-based, Caenorhabditis elegans. The settings on record: Caenorhabditis elegans, 48 h, read-out: MMIC N2. In short, it runs like this: (§1)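 Synchronized L1/L2 larvae of C. elegans N2 or drug-sensitive DC19, 100 worms/mL in NGM broth with cholesterol, carbenicillin and E. coli OP50, exposed to compound dilutions (64-0.5 µg/mL) for 2 days at room temperature. Motility judged from 1.5-second well videos; MMIC is the lowest concentration inhibiting movement.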

Data set [9] concerns C. elegans DC19. Nature of the data set: whole plant or invertebrate. The conditions noted are these: Caenorhabditis elegans, 48 h, read-out: MMIC DC19. The format is cell-based, Caenorhabditis elegans. The method in brief: as §1

Entries after “also recorded” stand apart in the source; their conditions may differ. Like-named read-outs stand apart in the source and are kept apart here.

For the compound `COC(=O)c1cc(CN2CC(Cl)CC(C)(C)C2)cc(CN2CC(Cl)CC(C)(C)C2)c1` (centres unmarked) [Compound 4], the minimal effective concentration in data set [1] (C. elegans, read-out: MMIC N2 and DC19) was less than 20 µg/mL; in data set [8] it was 16 µg/mL; in data set [9] it was 16 µg/mL. For the same compound, the MIC in data set [2], in data set [4] and in data set [5] was more than 64 µg/mL throughout. In addition, the MDCKII cytotoxicity entry in data set [3] was “− (“−” (not toxic))”. In [6], this compound yielded a CC50 of 205 µM. The “activity against S. mansoni (100% effect strength in one parameter within 7 days = active)” value in data set [7] is given as “no activity”.

For `COc1ccc(CN2CC(Cl)CC(C)(C)C2)c(CN2CC(Cl)CC(C)(C)C2)c1` (centres unmarked) [Compound 9], the minimal effective concentration in data set [1] (read-out: MMIC N2 and DC19, C. elegans) is 64 µg/mL; in data set [8], more than 64 µg/mL; in data set [9] it was 64 µg/mL. Moreover, the MIC in [2], in [4] and in [5] was more than 64 µg/mL throughout. In addition, the “cytotoxicity against MDCK II (in words)” value in [3] is given as “cytotoxic”. In data set [3], the MDCKII cytotoxicity entry is “+ (“+” (toxic))”. In data set [6], this compound returned a CC50 of 70 µM. Also, in data set [7] (10 μM, after 3 days), the “separation of worm pairs” value is given as “separation of all worm pairs”. The lethal effects entry in data set [7] (20 μM, after seven days) is “lethal effects”. In [7] (20 μM, after three days), the sucker detachment result is recorded as “sucker detachment already after three days”. Moreover, the “Effect on S. mansoni” value in [7] (10 and 20 μM, up to 7 days, Det: detachment of suckers, Mot: motility reduction, Sep: pair separation) is listed as “Det, Sep, Lethal”. Also, the “activity against S. mansoni (100% effect strength in one parameter within 7 days = active)” value in [7] is reported as “Schistosoma-specific; also recorded: active at 20 μM”.
